Data from patent US20110212892A1, “AGENT FOR TREATMENT OF DIABETES” (Dainippon Sumitomo Pharma Co., Ltd., priority 2008, published 2011).

Key:
Assay type in all cases: in vivo
db/db mice [1] = experiment: Blood glucose level on Day 11 in db/db mice, Compound A and metformin (Example 1-3); details: Compound A 30 mg/kg and/or metformin 300 mg/kg by gavage once a day for 14 days; for Blood glucose level: Day 11, mean ± SD, n = 8, in mg/dL (unit assumed)
Procedure: (§1) The antidiabetic action resulting from the combination of an insulin-sensitizing drug and a biguanide was studied by using db/db mice (8 weeks old, male, CLEA Japan, Inc.). The db/db mice were allocated to 4 groups (8 mice/group). Among the 4 groups, a vehicle (0.5% methylcellulose solution) was administered to Group 1 by gavage once a day for 14 days from the day of grouping (Day 1); Compound A (30 mg/kg) was administered to Group 2, metformin (300 mg/kg) was administered to Group 3, and Compound A (30 mg/kg) and metformin (300 mg/kg) were administered to Group 4 under the same condition as Group 1. Blood glucose and HbAlc levels were measured on Day 11 and Day 15, respectively.

db/db mice [2] = experiment: HbA1c change Day 1 to Day 15 in db/db mice, Compound A and metformin (Example 1-3); details: Compound A 30 mg/kg and/or metformin 300 mg/kg by gavage once a day for 14 days
Procedure: as §1

C57BL/KsJ-db/db mice [3] = experiment: Blood glucose after glibenclamide administration in db/db mice repeatedly given Compound A (Example 1-1); details: for Blood glucose level after the glibenclamide administration (relative value when blood glucose level at 0 hr is 100%) / Area under the curve of blood glucose level after the glibenclamide administration (relative value when blood glucose level at 0 hr is 100%): vehicle or Compound A 30 mg/kg once a day 15 days, next day vehicle or glibenclamide 10 mg/kg by gavage, n = 8; for Blood glucose level after the glibenclamide administration (relative value when blood glucose level at 0 hr is 100%): feed removed; for Blood glucose level after the glibenclamide administration (relative value when blood glucose level at 0 hr is 100%) / Area under the curve of blood glucose level after the glibenclamide administration (relative value when blood glucose level at 0 hr is 100%) / Blood glucose level before the glibenclamide administration: mean ± SD; for Decrease of blood glucose levels after glibenclamide/vehicle administration (in words): vehicle or Compound A 30 mg/kg 15 days, then vehicle or glibenclamide 10 mg/kg; for Blood glucose level before the glibenclamide administration: Compound A 30 mg/kg by gavage once a day for 15 days, next day, before glibenclamide/vehicle, n = 8, 30 mg/kg
Procedure: The antidiabetic action resulting from the combination of an insulin secretagogue (SU drug) and Compound A was studied by using C57BL/KsJ-db/db mice (hereinafter, referred to as “db/db mice”) (9 weeks old, male, CLEA Japan, Inc.) as a model of type 2 diabetes. The db/db mice were allocated to 4 groups (8 mice/group), and each group was put into a cage provided with feed. Among the 4 groups, a vehicle (0.5% methylcellulose solution) was administered to Groups 1 and 2 by gavage once a day for 15 days, and Compound A (30 mg/kg) was administered to Groups 3 and 4 under the same condition as Groups 1 and 2. On the next day after the last administration, the vehicle was administered to Groups 1 and 3, and glibenclamide (10 mg/kg) was administered to Groups 2 and 4, both by gavage; then the feed were removed from the cages and the changes in blood glucose levels were studied in each group. […]

C57BL/KsJ-db/db mice [4] = experiment: Blood insulin after glibenclamide administration in db/db mice repeatedly given Compound A (Example 1-1); details: vehicle or Compound A 30 mg/kg once a day 15 days, next day vehicle or glibenclamide 10 mg/kg by gavage, mean ± SD, n = 8
Procedure: The antidiabetic action resulting from the combination of an insulin secretagogue (SU drug) and Compound A was studied by using C57BL/KsJ-db/db mice (hereinafter, referred to as “db/db mice”) (9 weeks old, male, CLEA Japan, Inc.) as a model of type 2 diabetes. The db/db mice were allocated to 4 groups (8 mice/group), and each group was put into a cage provided with feed. Among the 4 groups, a vehicle (0.5% methylcellulose solution) was administered to Groups 1 and 2 by gavage once a day for 15 days, and Compound A (30 mg/kg) was administered to Groups 3 and 4 under the same condition as Groups 1 and 2. On the next day after the last administration, the vehicle was administered to Groups 1 and 3, and glibenclamide (10 mg/kg) was administered to Groups 2 and 4, both by gavage; then the feed were removed from the cages and the changes in blood glucose levels were studied in each group.
As a result, blood insulin level was higher in Group 4 (i.e. repeatedly administered with Compound A and then with glibenclamide) than in Groups 1 and 2 (i.e. repeatedly administered with the vehicle).

db/db mice [5] = experiment: Oral glucose tolerance test on Day 28 in db/db mice given agents in feed (Example 1-2); details: feed with 0.02 (w/w) % Compound A and/or 0.06 (w/w) % sitagliptin; for Blood glucose level after the glucose load on Day 28 / Area under the curve of blood glucose level after the glucose load on Day 28: OGTT 2 g/kg glucose, mean ± SD, n = 8; for Blood glucose level after the glucose load on Day 28: fasted overnight; for Area under the curve of blood glucose level in oral glucose tolerance test versus control (in words): Day 28
Source text: (§2) The antidiabetic action resulting from the combination of an insulin secretagogue (DPP-4 inhibitor) and Compound A was studied by using db/db mice (8 weeks old, male, CLEA Japan, Inc.). The db/db mice were allocated to 4 groups (8 mice/group). The mice in Group 1 were given powdered feed (control), Group 2 were given powdered feed containing 0.02 (w/w) % of Compound A, Group 3 were given powdered feed containing 0.06 (w/w) % of sitagliptin, and Group 4 were given powdered feed containing 0.02 (w/w) % of Compound A and 0.06 (w/w) % of sitagliptin. In addition, the powdered feed mentioned-above were all the same (i.e. trade name: CE-2, CLEA Japan, Inc.). An oral glucose tolerance test was performed on Day 28. To be more specific, on the day before the test, the mice were fasted overnight; and on the test day, 2 g/kg of glucose was administered by gavage to study the changes in blood glucose levels. Glycosylated hemoglobin (hereinafter, referred to as “HbAlc”) was measured on Day 33.

db/db mice [6] = experiment: HbA1c change to Day 33 in db/db mice given agents in feed (Example 1-2); details: start of experiment to Day 33, feed with 0.02 (w/w) % Compound A and/or 0.06 (w/w) % sitagliptin; for Amounts of change in HbA1c before and after treatment: mean ± SD, n = 8
Source text: as §2

Row | SMILES | Blood glucose level (Day 11) and amount of HbA1c change (Day 1 to Day 15); single agents versus vehicle, combination versus single agents (in words) (db/db mice [1]) | Blood glucose level (db/db mice [1]) | Amount of change in HbA1c (db/db mice [2]) | Blood glucose level after the glibenclamide administration (relative value when blood glucose level at 0 hr is 100%) (C57BL/KsJ-db/db mice [3]; 1 hr) [%] | Blood glucose level after the glibenclamide administration (relative value when blood glucose level at 0 hr is 100%) (C57BL/KsJ-db/db mice [3]; 2 hr) [%] | Blood glucose level after the glibenclamide administration (relative value when blood glucose level at 0 hr is 100%) (C57BL/KsJ-db/db mice [3]; 4 hr) [%] | Blood glucose level after the glibenclamide administration (relative value when blood glucose level at 0 hr is 100%) (C57BL/KsJ-db/db mice [3]; 6 hr) [%] | Decrease of blood glucose levels after glibenclamide/vehicle administration (in words) (C57BL/KsJ-db/db mice [3]) | Area under the curve of blood glucose level after the glibenclamide administration (relative value when blood glucose level at 0 hr is 100%) (C57BL/KsJ-db/db mice [3]) [% · hr] | Blood insulin level after the glibenclamide administration (relative value when insulin level at 0 hr is 100%) (C57BL/KsJ-db/db mice [4]; 1 hr) [%] | Blood insulin level after the glibenclamide administration (relative value when insulin level at 0 hr is 100%) (C57BL/KsJ-db/db mice [4]; 2 hr) [%] | Area under the curve of blood insulin level after the glibenclamide administration (relative value when insulin level at 0 hr is 100%) (C57BL/KsJ-db/db mice [4]) [% · hr] | Blood glucose level after the glucose load on Day 28 (db/db mice [5]; 0 min) [mg/dL] | Blood glucose level after the glucose load on Day 28 (db/db mice [5]; 10 min) [mg/dL] | Blood glucose level after the glucose load on Day 28 (db/db mice [5]; 30 min) [mg/dL] | Blood glucose level after the glucose load on Day 28 (db/db mice [5]; 60 min) [mg/dL] | Blood glucose level after the glucose load on Day 28 (db/db mice [5]; 90 min) [mg/dL] | Blood glucose level after the glucose load on Day 28 (db/db mice [5]; 120 min) [mg/dL] | Area under the curve of blood glucose level in oral glucose tolerance test versus control (in words) (db/db mice [5]) | Area under the curve of blood glucose level after the glucose load on Day 28 (db/db mice [5]) [mg·min/dL] | also measured
1 | CN(C)C(=N)N=C(N)N [Metformin, metformin, reference compound] | significant decrease of blood glucose level and amount of HbAlc change | 323.5 ± 66.3 | 1.09 ± 0.16 | – | – | – | – | – | – | – | – | – | – | – | – | – | – | – | – | – | –
2 | COc1ccc(Cl)cc1C(=O)NCCc1ccc(S(=O)(=O)NC(=O)NC2CCCCC2)cc1 [Glibenclamide, glibenclamide, reference compound] | – | – | – | 96.2 ± 7.7 | 91.3 ± 5.9 | 82.9 ± 12.7 | 80.9 ± 12.1 | no decrease in blood glucose levels | 530.0 ± 35.1 | 75.1 ± 25.1 | 83.3 ± 21.4 | 166.7 ± 31.5 | – | – | – | – | – | – | – | – | –
3 | N[C@@H](CC(=O)N1CCn2c(nnc2C(F)(F)F)C1)Cc1cc(F)c(F)cc1F [Sitagliptin, sitagliptin, reference compound] | – | – | – | – | – | – | – | – | – | – | – | – | 167 ± 15 | 542 ± 81 | 588 ± 125 | 510 ± 95 | 455 ± 100 | 408 ± 107 | significant difference was not observed | 57680 ± 10679 | Change in HbA1c versus control (in words) (db/db mice [6]): A difference was not observed; Amounts of change in HbA1c before and after treatment (db/db mice [6]): 1.68 ± 0.51%
4 | Cc1ccc(C(=O)c2cccn2C/C=C/c2ccc(COC(C)(C)C(=O)O)cc2)cc1 [Compound A, 2-methyl-2-[(4-{(1E)-3-[2-(4-methylbenzoyl)-1H-pyrrol-1-yl]prop-1-en-1-yl}benzyl)oxy]propanoic acid] | significant decrease of blood glucose level and amount of HbAlc change | 321.9 ± 43.5 | 0.93 ± 0.28 | 100.2 ± 10.2 | 96.1 ± 14.2 | 93.8 ± 15.9 | 93.6 ± 14.1 | did not | 575.6 ± 73.0 | 55.9 ± 15.8 | 61.6 ± 17.3 | 136.8 ± 17.7 | 146 ± 33 | 500 ± 62 | 633 ± 57 | 566 ± 41 | 457 ± 74 | 412 ± 82 | significant difference was not observed | 59692 ± 4741 | Blood glucose level before the glibenclamide administration (C57BL/KsJ-db/db mice [3]; group later given glibenclamide): 323.4 ± 75.7 mg/dL; Blood glucose level before the glibenclamide administration (C57BL/KsJ-db/db mice [3]; group later given vehicle): 332.1 ± 90.8 mg/dL; Change in HbA1c versus control (in words) (db/db mice [6]): A difference was not observed; Amounts of change in HbA1c before and after treatment (db/db mice [6]): 1.28 ± 0.53%
